Results on 23 compounds are retold here after patent US8450317B2, “CXCR3 receptor antagonists” (Boehringer Ingelheim International GmbH, priority 2009, dated 2013).

One may read the IC50 as the concentration needed to halve the response being measured.

This assay has as its target CXCR3 (Macaca fascicularis, UniProt A0A2K5UV19). The assay is described as follows: functional cellular assay measuring calcium flux in CXCR3 transfected cells (block of CXCR3/IP-10 interaction). In kind it is cell-based, Cyno. The settings on record: IP-10 induced intracellular calcium flux; Cyno-CHO cells stably expressing recombinant CXCR3 and G-alpha-16; IP-10 at EC80; read-out: IC50. The method in brief:
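Cyno-CHO cells stably expressing CXCR3 and G-alpha-16, loaded with Ca-4 dye in HBSS/10 mM HEPES pH 7.4 with 2 mM probenecid for 1 h at 37° C. Compound (final 10 microM) preincubated 15 min at room temperature, then IP-10 at EC80 added; calcium flux read at 480/540 nm.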

CXCR3, sequence (A0A2K5UV19 entry or part of it): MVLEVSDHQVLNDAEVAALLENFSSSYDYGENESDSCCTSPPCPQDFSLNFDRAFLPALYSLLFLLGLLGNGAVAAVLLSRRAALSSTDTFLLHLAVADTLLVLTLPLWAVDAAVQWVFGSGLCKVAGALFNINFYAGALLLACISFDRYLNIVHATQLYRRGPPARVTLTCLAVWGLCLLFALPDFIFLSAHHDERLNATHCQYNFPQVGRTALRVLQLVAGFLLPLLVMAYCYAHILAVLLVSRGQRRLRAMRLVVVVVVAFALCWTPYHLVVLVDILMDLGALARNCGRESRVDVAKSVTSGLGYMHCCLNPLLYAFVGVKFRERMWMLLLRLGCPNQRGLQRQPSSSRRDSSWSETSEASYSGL

As to `O=C(Cn1c(=O)[nH]c2ccccc21)N1CCN(c2ccc(F)cc2-c2cnc(N3CCC(O)CC3)nc2)CC1` [1-[2-(4-{4-fluoro-2-[2-(4-hydroxypiperidin-1-yl)pyrimidin-5-yl]phenyl}piperazin-1-yl)-2-oxoethyl]-1,3-dihydro-2H-benzimidazol-2-one], the IC50 was 8 nM.
Regarding `CNc1ncc(-c2cc(Cl)ccc2N2CCN(C(=O)Cn3ccc4cccnc43)CC2)cn1` [1-{4-[4-Chloro-2-(2-methylamino-pyrimidin-5-yl)-phenyl]-piperazin-1-yl}-2-pyrrolo[2,3-b]pyridin-1-yl-ethanone], the IC50 worked out at 6 nM.
As for `CCNc1ncc(-c2ccccc2N2CCN(C(=O)Cn3nc(C)cc3C)CC2)cn1` [2-(3,5-Dimethyl-pyrazol-1-yl)-1-{4-[2-(2-ethylamino-pyrimidin-5-yl)-phenyl]-piperazin-1-yl}-ethanone], the IC50 worked out at 10 nM.
Consider `Cc1cc(C)n(CC(=O)N2CCN(c3ccccc3-c3cnc(N4CC(C)OC(C)C4)nc3)CC2)n1` (centres unmarked) [1-(4-{2-[2-(2,6-Dimethyl-morpholin-4-yl)-pyrimidin-5-yl]-phenyl}-piperazin-1-yl)-2-(3,5-dimethyl-pyrazol-1-yl)-ethanone], for which the IC50 is 6 nM.
For `CC1CN(c2ccc(C(F)(F)F)cc2-c2cnc(N3CCC(O)CC3)nc2)CCN1C(=O)CN1CCCCC1=O` (centres unmarked) [1-[2-(4-{2-[2-(4-hydroxypiperidin-1-yl)pyrimidin-5-yl]-4-(trifluoromethyl)phenyl}-2-methylpiperazin-1-yl)-2-oxoethyl]piperidin-2-one], the IC50 is 11 nM.
Regarding `O=C(Cn1cnc2cccnc21)N1CCN(c2ccc(F)cc2-c2cnc(N3CCC(O)CC3)nc2)CC1` [1-(4-{4-fluoro-2-[2-(4-hydroxypiperidin-1-yl)pyrimidin-5-yl]phenyl}piperazin-1-yl)-2-(3H-imidazo[4,5-b]pyridin-3-yl)ethanone], the IC50 was 8 nM.
The result for `O=C(CN1Cc2ccccc2C1=O)N1CCN(c2ccc(F)cc2-c2cnc(N3CCOCC3)nc2)CC1` [2-[2-(4-{4-fluoro-2-[2-(morpholin-4-yl)pyrimidin-5-yl]phenyl}piperazin-1-yl)-2-oxoethyl]-2,3-dihydro-1H-isoindol-1-one] reads 23 nM.
As for `CC(C)C(=O)N(C)CC(=O)N1CCN(c2ccc(F)cc2C(=O)Nc2nc3c(s2)CN(C)CC3)C[C@@H]1C` [5-fluoro-2-{(3S)-3-methyl-4-[N-methyl-N-(2-methylpropanoyl)glycyl]piperazin-1-yl}-N-(5-methyl-4,5,6,7-tetrahydro[1,3]thiazolo[5,4-c]pyridin-2-yl)benzamide], the IC50 was determined as 14 nM.
The result for `COc1cc(NC(=O)c2cc(F)ccc2N2CCN(C(=O)Cn3c(=O)[nH]c4ccccc43)[C@H](C)C2)ccn1` [5-fluoro-N-(2-methoxypyridin-4-yl)-2-{(3R)-3-methyl-4-[(2-oxo-2,3-dihydro-1H-benzimidazol-1-yl)acetyl]piperazin-1-yl}benzamide] reads 8 nM.
Regarding `Cc1cc(C)n(CC(=O)N2CCN(c3ccc(F)cc3-c3cnc(N4CCC(O)CC4)nc3)CC2)n1` [2-(3,5-dimethyl-1H-pyrazol-1-yl)-1-(4-{4-fluoro-2-[2-(4-hydroxypiperidin-1-yl)pyrimidin-5-yl]phenyl}piperazin-1-yl)ethanone], the IC50 worked out at 9 nM.
The result for `CS(=O)(=O)c1ncc(-c2cc(F)ccc2N2CCN(C(=O)Cn3c(=O)[nH]c4ccccc43)CC2)cn1` [1-[2-(4-{4-fluoro-2-[2-(methylsulfonyl)pyrimidin-5-yl]phenyl}piperazin-1-yl)-2-oxoethyl]-1,3-dihydro-2H-benzimidazol-2-one] reads 47 nM; that for `COc1cc(-c2ccccc2N2CCN(C(=O)Cn3ccc4cccnc43)CC2)ccn1` [1-{4-[2-(2-Methoxy-pyridin-4-yl)-phenyl]-piperazin-1-yl}-2-pyrrolo[2,3-b]pyridin-1-yl-ethanone], 24 nM.
As for `CS(=O)(=O)C1CCN(c2ncc(-c3cc(F)ccc3N3CCN(C(=O)Cn4ccc5ccncc54)CC3)cn2)CC1` [1-[4-(4-fluoro-2-{2-[4-(methylsulfonyl)piperidin-1-yl]pyrimidin-5-yl}phenyl)piperazin-1-yl]-2-(1H-pyrrolo[2,3-c]pyridin-1-yl)ethanone], the IC50 came out at 8 nM.
The result for `CCNc1ncc(-c2ccccc2N2CCN(C(=O)Cn3ccc4cccnc43)CC2)cn1` [1-{4-[2-(2-Ethylamino-pyrimidin-5-yl)-phenyl]-piperazin-1-yl}-2-pyrrolo[2,3-b]pyridin-1-yl-ethanone] reads 9 nM; that for `Cc1cc(C)n(CC(=O)N2CCN(c3ccccc3-c3cnc(C#N)nc3)CC2)n1` [5-(2-{4-[2-(3,5-Dimethyl-pyrazol-1-yl)-acetyl]-piperazin-1-yl}-phenyl)-pyrimidine-2-carbonitrile], 43 nM.
Under `CC1CN(c2ccccc2-c2cnc(N3CCOCC3)nc2)CCN1C(=O)Cn1ccc2cccnc21` (centres unmarked) [1-{2-Methyl-4-[2-(2-morpholin-4-yl-pyrimidin-5-yl)-phenyl]-piperazin-1-yl}-2-pyrrolo[2,3-b]pyridin-1-yl-ethanone] stands 13 nM; under `CC1CN(c2ccccc2-c2cnc(N3CCC(O)CC3)nc2)CCN1C(=O)CN1Cc2ccccc2C1=O` (centres unmarked) [2-[2-(4-{2-[2-(4-hydroxypiperidin-1-yl)pyrimidin-5-yl]phenyl}-2-methylpiperazin-1-yl)-2-oxoethyl]-2,3-dihydro-1H-isoindol-1-one], 10 nM; under `O=C(Cn1c(=O)[nH]c2ccccc21)N1CCN(c2ccc(F)cc2-c2cnc(N3CCOCC3)nc2)CC1` [1-[2-(4-{4-fluoro-2-[2-(morpholin-4-yl)pyrimidin-5-yl]phenyl}piperazin-1-yl)-2-oxoethyl]-1,3-dihydro-2H-benzimidazol-2-one], 11 nM.
Consider `Cc1cc(C)n(CC(=O)N2CCN(c3ccccc3-c3cnc(N4CCC(O)C4)nc3)CC2)n1` (centres unmarked) [2-(3,5-Dimethyl-pyrazol-1-yl)-1-(4-{2-[2-(3-hydroxy-pyrrolidin-1-yl)-pyrimidin-5-yl]-phenyl}-piperazin-1-yl)-ethanone], for which the IC50 stood at 9 nM.
For the compound `C[C@H]1CN(c2ccc(F)cc2C(=O)Nc2nc3c(s2)CN(C)CC3)CCN1C(=O)Cn1ccc2cccnc21` [5-fluoro-2-[(3S)-3-methyl-4-(1H-pyrrolo[2,3-b]pyridin-1-ylacetyl)piperazin-1-yl]-N-(5-methyl-4,5,6,7-tetrahydro[1,3]thiazolo[5,4-c]pyridin-2-yl)benzamide], the half-inhibitory concentration (IC50) turned out to be 17 nM.
As for `O=C(Cn1ccc2cccnc21)N1CCN(c2ccccc2-c2cnc(N3CCCC3)nc2)CC1` [1-{4-[2-(2-Pyrrolidin-1-yl-pyrimidin-5-yl)-phenyl]-piperazin-1-yl}-2-pyrrolo[2,3-b]pyridin-1-yl-ethanone], the IC50 amounted to 9 nM.
As to `O=C(Cn1ccc2ccncc21)N1CCN(c2ccc(F)cc2-c2cnc(N3CCC(O)CC3)nc2)CC1` [1-(4-{4-fluoro-2-[2-(4-hydroxypiperidin-1-yl)pyrimidin-5-yl]phenyl}piperazin-1-yl)-2-(1H-pyrrolo[2,3-c]pyridin-1-yl)ethanone], the IC50 was 10 nM.
Under `C[C@@H]1CN(c2ncc(-c3ccccc3N3CCN(C(=O)Cn4ccc5cccnc54)CC3)cn2)C[C@H](C)O1` [1-(4-{2-[2-((2R,6S)-2,6-Dimethyl-morpholin-4-yl)-pyrimidin-5-yl]-phenyl}-piperazin-1-yl)-2-pyrrolo[2,3-b]pyridin-1-yl-ethanone] stands 10 nM.
